Experimental data reported in patent US20100173281A1, “HCV NS3 protease replicon shuttle vectors” (priority 2009, published 2010).
Read-outs that look alike come from different tables or passages of the source.

Assays:
[1] = test system: replicon shuttle vector pSC_1b_NS3/Protease_EcoRV_AsiSI in Lunet Huh7 cells; test: Phenotypic replicon assay (transient replicon, firefly luciferase reporter), control shuttle vector; format: cell-based, HCV; conditions: read-out: Mean IC50
Procedure: Phenotypic Replicon Assay
Five micrograms of DNA plasmids were linearized by Sca I restriction enzyme (Roche). After overnight digestion at 37° C., the DNA was purified using Qiagen PCR purification kit. One microgram of linearized DNA was used for the in vitro transcription using T7 RiboMAX Express (Promega) following manufacturer's protocol. After 2 hours of incubation at 37° C., DNase treatment was performed for 30 minutes at 37° C. to remove the DNA template. In vitro transcribed RNA was then purified using RNeasy spin column (Qiagen) following manufacturer's protocol.
The hepatoma Lunet Huh-7 cell line were cultured at 37° C. in a humidified atmosphere with 5% CO2 in Dulbecco's Modified Eagle Medium (DMEM) supplemented with Glutamax™ and […] sodium pyruvate. The medium was further supplemented with 10% (v/v) FBS and 1% (v/v) penicillin/streptomycin. All reagents were from Invitrogen/Gibco.
Four million Lunet Huh7 cells were transfected with 5 μg of in vitro transcribed RNA using electroporation. Cells were then resuspended in 7.2 ml of DMEM containing 5% FBS and plated in 96-well plate at 50000 cells/well (in 90 μl final volume). Inhibitors (when used) were added 24 hours post-transfection in 3 fold dilutions at a final DMSO concentration of 1% and firefly luciferase reporter signal was read 72 hours after addition of inhibitors using the Luciferase Assay system (Promega). The IC50 values were assessed as the inhibitor concentration at which a 50% reduction in the level of firefly luciferase reporter was observed as compared to the level of firefly luciferase signal without the addition of compounds.
The replication capacity of the replicon shuttle vector, pSC—1b_NS3/Protease_EcoRV_AsiSI, as well as those of replicons that contain HCV genotype-1a and genotype-1b patient-derived NS3 protease domains were tested with the luciferase signal as the readout and the results are shown on FIG. 3. The inhibitory effects of the HCV protease inhibitors, BILN2061, VX-950 and NM107 were also tested on these replicons and the results are shown on Table 1.

[2] = test system: replicons that contain HCV genotype-1a patient-derived NS3 protease domains in Lunet Huh7 cells; test: Phenotypic replicon assay (transient replicon, firefly luciferase reporter), genotype-1a patient-derived NS3 protease; format: cell-based
[3] = test system: replicons that contain HCV genotype-1b patient-derived NS3 protease domains in Lunet Huh7 cells; test: Phenotypic replicon assay (transient replicon, firefly luciferase reporter), genotype-1b patient-derived NS3 protease; format: cell-based
[4] = Hepatitis C virus, Huh-7, read-out: Mean IC50, GT-1a patient sample RO-191
[5] = Hepatitis C virus, Huh-7, read-out: Mean IC50, GT-1a patient sample RO-192
[6] = Hepatitis C virus, Huh-7, read-out: Mean IC50, GT-1a patient sample RO-193
[7] = Hepatitis C virus, Huh-7, read-out: Mean IC50, GT-1a patient sample RO-194
[8] = Hepatitis C virus, Huh-7, read-out: Mean IC50, GT-1a patient sample RO-195
[9] = Hepatitis C virus, Huh-7, read-out: Mean IC50, GT-1a patient sample RO-207
[10] = Hepatitis C virus, Huh-7, read-out: Mean IC50, GT-1b patient sample 206
[11] = Hepatitis C virus, Huh-7, read-out: Mean IC50, GT-1b patient sample 301
[12] = Hepatitis C virus, Huh-7, read-out: Mean IC50, GT-1b patient sample PC232

Compound | IC50 ([1]; Hepatitis C virus, Huh-7, 72 h) [nM] | IC50 [2, 4] [nM] | IC50 [2, 5] [nM] | IC50 [2, 6] [nM] | IC50 [2, 7] [nM] | IC50 [2, 8] [nM] | IC50 [2, 9] [nM] | IC50 [3, 10] [nM] | IC50 [3, 11] [nM] | IC50 [3, 12] [nM] | IC50 ([1]; replicon control pSC_1b_NS3/Protease_EcoRV_AsiSI, luciferase read 72 hours after addition of inhibitors) [nM] | IC50 ([2]; GT-1a patient sample RO-191, read-out: Mean IC50) [nM] | IC50 ([2]; GT-1a patient sample RO-192, read-out: Mean IC50) [nM] | IC50 ([2]; GT-1a patient sample RO-193, read-out: Mean IC50) [nM] | IC50 ([2]; GT-1a patient sample RO-194, read-out: Mean IC50) [nM] | IC50 ([2]; GT-1a patient sample RO-195, read-out: Mean IC50) [nM] | IC50 ([2]; GT-1a patient sample RO-207, read-out: Mean IC50) [nM] | IC50 ([3]; GT-1b patient sample 206, read-out: Mean IC50) [nM] | IC50 ([3]; GT-1b patient sample 301, read-out: Mean IC50) [nM] | IC50 ([3]; GT-1b patient sample PC232, read-out: Mean IC50) [nM]
CCC[C@H](NC(=O)[C@@H]1[C@H]2CCC[C@H]2CN1C(=O)[C@@H](NC(=O)[C@@H](NC(=O)c1cnccn1)C1CCCCC1)C(C)(C)C)C(=O)C(=O)NC1CC1 [VX-950] | 0.16 | 0.057 | 0.068 | 0.132 | 0.052 | 0.028 | 0.083 | 0.175 | 0.162 | 0.166 |  |  |  |  |  |  |  |  |  | 
COc1ccc2c(O[C@@H]3C[C@H]4C(=O)N[C@]5(C(=O)O)C[C@H]5/C=C\CCCCC[C@H](NC(=O)OC5CCCC5)C(=O)N4C3)cc(-c3csc(NC(C)C)n3)nc2c1 [BILN2061] | 0.489 | 0.798 | 0.34 | 0.298 | 0.665 | 0.629 | 0.386 | 0.643 | 0.378 | 0.468 |  |  |  |  |  |  |  |  |  | 
C[C@@]1(O)[C@H](O)[C@@H](CO)O[C@H]1n1ccc(N)nc1=O [NM107] |  |  |  |  |  |  |  |  |  |  | 283 | 539 | 554 | 640 | 509 | 312 | 1160 | 279 | 279 | 449
